Measurements reported in ChEMBL document CHEMBL1201862, “PubChem BioAssay data set” (2004).
Calls of active or inactive are those of the source.

Columns and labels:
Cytochrome P450 2C19 = Cytochrome P450 2C19 (Homo sapiens, UniProt P33261); assay: Cytochrome panel assay with activity outcomes. Panel member name: p450-cyp2c19 Compounds with AC50 equal or less than 10 uM are considered active; format: functional; conditions: read-out: AC50
[1] = HIV-1 Vif–A3G interaction blockers – biochemical, TR-FRET, GST-Vif 1-94, biotin-A3G peptide, dose response retest, primary screen (AID 1117319); format: functional;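 further: TR-FRET signal of purified GST-Vif binding a biotinylated A3G peptide; inhibitors lower the FRET signal by blocking Vif and A3G binding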
Cytochrome P450 2C9 = Cytochrome P450 2C9 (Homo sapiens, UniProt P11712)
[2] = viability inhibitors of stage V gametocytes – luminescence, dose response (AID 1117278); format: functional, cell-based;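 further: gametocytes exposed to compound for 24 hours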
[3] = viability loss in human Jurkat cells – cell-based, luminescence, cytotoxicity control for P. falciparum gametocyte viability project, dose response (AID 1117277); format: functional;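 further: potency reflects loss of cellular ATP meaning fewer viable cells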
[4] = target: E3 ubiquitin-protein ligase Mdm2 (Homo sapiens, UniProt Q00987); assay: MDM2-luc reporter signal enhancers, multi-concentration potency testing, MDM2 ubiquitin-protein ligase inhibitor program, whole-cell format, luminescence detection, 384-well microplate (AID 1394); format: functional;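 further: MDM2 E3 inhibitors raise luminescence so EC50 is for signal enhancement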
[5] = target: Bifunctional protein GlmU (Mycobacterium tuberculosis, UniProt P9WMN3); assay: Inhibitors of Mycobacterial Glucosamine-1-phosphate acetyl transferase (GlmU). Secondary screen.; parameters: species or system Mycobacterium tuberculosis H37Rv
Protein skinhead-1 = target: T1, Protein skinhead-1 (Caenorhabditis elegans, UniProt P34707); format: functional
T1 sequence (P34707 whole entry): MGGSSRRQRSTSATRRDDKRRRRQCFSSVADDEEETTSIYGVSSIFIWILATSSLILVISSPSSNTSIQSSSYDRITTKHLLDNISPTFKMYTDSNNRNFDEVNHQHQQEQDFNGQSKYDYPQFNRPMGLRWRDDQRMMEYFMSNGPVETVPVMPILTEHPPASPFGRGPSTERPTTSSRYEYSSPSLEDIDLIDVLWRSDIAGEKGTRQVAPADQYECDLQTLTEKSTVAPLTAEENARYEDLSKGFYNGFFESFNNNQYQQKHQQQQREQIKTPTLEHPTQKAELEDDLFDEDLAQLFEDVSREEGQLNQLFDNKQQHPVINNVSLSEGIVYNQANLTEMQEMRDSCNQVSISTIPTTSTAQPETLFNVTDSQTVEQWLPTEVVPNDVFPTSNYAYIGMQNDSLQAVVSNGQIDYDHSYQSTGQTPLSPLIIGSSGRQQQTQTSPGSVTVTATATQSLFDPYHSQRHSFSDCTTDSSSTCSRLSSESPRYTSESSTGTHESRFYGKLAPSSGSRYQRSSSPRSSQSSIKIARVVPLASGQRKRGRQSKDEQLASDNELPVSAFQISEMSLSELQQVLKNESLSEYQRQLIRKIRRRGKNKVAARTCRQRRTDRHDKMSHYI

NADPH oxidase 1 = NADPH oxidase 1 (Homo sapiens, UniProt Q9Y5S8); assay: Late stage results from the probe development effort to identify inhibitors of NOX1: HEK/293 IC50. [Related pubchem assays: 1796 (Summary AID (NOX1)), 2752 (Primary screen (NOX1 inhibitors, synthesized analogs set 2)), 2664 (Primary screen (NOX1 inhibitors, synthesized analogs)), 1792 (Primary Screen (NOX1)), 2545 (Confirmation screen (NOX1 …; format: functional
Genome polyprotein = Genome polyprotein (Hepatitis C virus, UniProt Q2Q167); assay: disruption of hepatitis C core self-association – biochemical, TR-FRET, dose response (AID 2159); parameters: species or system Hepacivirus hominis;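 further: blocks dimerization of HCV core protein measured by TR-FRET between tagged core106 pairs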
[6] = target: T2, Carboxy-terminal domain RNA polymerase II polypeptide A small phosphatase 1 (Homo sapiens, UniProt Q9GZU7); assay: CTDSP1 inhibitors, concentration-response, biochemical, absorbance readout, ultra-high-throughput screen actives (AID 540297); format: functional
T2 sequence (Q9GZU7 whole entry): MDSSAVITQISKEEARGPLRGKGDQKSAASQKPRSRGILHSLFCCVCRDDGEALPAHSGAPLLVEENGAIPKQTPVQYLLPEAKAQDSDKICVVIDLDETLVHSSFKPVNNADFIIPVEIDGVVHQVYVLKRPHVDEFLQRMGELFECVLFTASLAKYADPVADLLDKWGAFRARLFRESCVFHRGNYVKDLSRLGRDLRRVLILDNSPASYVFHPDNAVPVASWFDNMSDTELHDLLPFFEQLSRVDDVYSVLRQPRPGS

[7] = target: T3, Probable nicotinate-nucleotide adenylyltransferase (Staphylococcus aureus (strain N315), UniProt P65502); format: functional, Staphylococcus aureus subsp. aureus N315;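 on IC50 Mean: confirmatory dose-response retesting of NadD inhibitor hits first found in an ultra-high-throughput screen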
[8] = target: T3, Probable nicotinate-nucleotide adenylyltransferase; format: functional, Staphylococcus aureus subsp. aureus N315; conditions: read-out: IC50_Mean
[9] = target: T4, Tyrosine-protein phosphatase non-receptor type 7 (Homo sapiens, UniProt P35236); assay: HePTP tyrosine phosphatase activity blockers – biochemical, absorbance, leukemia target, primary screen (AID 521); format: functional
T4 sequence (P35236 whole entry): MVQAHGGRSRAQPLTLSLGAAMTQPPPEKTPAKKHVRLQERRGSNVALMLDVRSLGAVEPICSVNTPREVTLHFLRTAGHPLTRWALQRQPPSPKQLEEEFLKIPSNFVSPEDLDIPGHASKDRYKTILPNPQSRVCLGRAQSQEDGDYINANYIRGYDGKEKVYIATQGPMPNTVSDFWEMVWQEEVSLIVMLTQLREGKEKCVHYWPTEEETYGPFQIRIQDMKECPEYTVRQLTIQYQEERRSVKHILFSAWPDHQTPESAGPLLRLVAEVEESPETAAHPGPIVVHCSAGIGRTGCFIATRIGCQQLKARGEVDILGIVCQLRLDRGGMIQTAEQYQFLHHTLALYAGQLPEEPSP

T3 sequence (P65502 whole entry): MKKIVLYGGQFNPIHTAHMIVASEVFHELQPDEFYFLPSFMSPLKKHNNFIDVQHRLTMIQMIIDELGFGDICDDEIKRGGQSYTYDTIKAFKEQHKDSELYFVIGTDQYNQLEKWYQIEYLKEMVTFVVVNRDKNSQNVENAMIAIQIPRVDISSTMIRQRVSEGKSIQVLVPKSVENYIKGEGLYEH
Sequence of Bifunctional protein GlmU (P9WMN3 whole entry): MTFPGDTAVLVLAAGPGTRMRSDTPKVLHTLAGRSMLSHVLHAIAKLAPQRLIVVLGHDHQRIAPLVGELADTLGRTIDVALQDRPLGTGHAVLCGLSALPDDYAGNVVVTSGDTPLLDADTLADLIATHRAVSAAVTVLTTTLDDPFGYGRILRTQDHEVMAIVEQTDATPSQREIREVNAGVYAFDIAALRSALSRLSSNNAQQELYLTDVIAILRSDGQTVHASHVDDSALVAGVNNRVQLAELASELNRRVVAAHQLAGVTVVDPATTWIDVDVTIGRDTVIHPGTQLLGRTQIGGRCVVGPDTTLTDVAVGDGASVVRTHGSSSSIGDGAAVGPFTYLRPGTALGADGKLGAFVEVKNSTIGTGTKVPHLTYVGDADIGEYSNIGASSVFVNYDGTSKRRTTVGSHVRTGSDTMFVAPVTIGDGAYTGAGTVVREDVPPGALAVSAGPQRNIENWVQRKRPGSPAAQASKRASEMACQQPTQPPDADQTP
Sequence of Cytochrome P450 2C9 (P11712 whole entry): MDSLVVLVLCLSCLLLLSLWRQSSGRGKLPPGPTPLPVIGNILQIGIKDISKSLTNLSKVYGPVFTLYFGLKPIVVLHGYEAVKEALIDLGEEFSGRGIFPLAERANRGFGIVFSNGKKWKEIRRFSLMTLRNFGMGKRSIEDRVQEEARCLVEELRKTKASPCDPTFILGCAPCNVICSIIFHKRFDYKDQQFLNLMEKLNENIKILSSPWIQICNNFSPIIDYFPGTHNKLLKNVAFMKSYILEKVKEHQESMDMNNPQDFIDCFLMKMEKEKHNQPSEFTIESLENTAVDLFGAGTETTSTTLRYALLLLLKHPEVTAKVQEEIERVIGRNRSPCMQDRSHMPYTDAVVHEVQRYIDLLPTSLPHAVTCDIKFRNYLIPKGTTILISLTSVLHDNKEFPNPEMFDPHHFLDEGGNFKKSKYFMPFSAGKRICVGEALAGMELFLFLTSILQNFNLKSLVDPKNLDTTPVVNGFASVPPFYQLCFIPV
Sequence of Cytochrome P450 2C19 (P33261 whole entry): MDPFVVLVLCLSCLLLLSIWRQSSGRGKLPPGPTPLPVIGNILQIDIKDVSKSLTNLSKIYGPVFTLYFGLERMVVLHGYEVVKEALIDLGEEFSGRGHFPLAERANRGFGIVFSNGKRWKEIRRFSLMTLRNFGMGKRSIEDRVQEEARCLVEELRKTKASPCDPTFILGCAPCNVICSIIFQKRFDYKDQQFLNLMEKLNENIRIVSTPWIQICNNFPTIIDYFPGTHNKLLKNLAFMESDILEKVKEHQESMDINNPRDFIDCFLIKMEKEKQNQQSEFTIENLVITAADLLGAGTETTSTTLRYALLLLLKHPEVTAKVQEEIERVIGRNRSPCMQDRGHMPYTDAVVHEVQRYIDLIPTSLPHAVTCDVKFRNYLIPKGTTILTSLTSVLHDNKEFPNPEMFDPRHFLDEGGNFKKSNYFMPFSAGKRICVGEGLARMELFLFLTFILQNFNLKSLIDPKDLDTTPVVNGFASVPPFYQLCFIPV
Sequence of Genome polyprotein (Q2Q167 whole entry, the tested form may be a part): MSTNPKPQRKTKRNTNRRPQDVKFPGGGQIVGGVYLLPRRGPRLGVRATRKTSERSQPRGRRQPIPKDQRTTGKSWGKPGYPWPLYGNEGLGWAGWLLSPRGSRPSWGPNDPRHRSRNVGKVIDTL
Sequence of E3 ubiquitin-protein ligase Mdm2 (Q00987 whole entry): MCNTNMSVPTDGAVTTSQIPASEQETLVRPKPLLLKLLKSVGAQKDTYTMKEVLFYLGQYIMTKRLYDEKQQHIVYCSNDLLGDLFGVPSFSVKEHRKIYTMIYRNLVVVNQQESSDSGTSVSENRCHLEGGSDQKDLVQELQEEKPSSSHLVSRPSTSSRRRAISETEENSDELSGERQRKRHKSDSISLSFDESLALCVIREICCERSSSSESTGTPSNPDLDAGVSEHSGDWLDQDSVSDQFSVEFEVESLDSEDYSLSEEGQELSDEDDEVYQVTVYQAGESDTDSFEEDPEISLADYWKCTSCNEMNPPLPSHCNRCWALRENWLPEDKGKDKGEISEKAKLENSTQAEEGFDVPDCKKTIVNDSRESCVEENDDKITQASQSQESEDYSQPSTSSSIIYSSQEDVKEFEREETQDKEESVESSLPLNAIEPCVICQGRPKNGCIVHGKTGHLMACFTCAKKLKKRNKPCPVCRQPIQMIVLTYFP
Sequence of NADPH oxidase 1 (Q9Y5S8 whole entry): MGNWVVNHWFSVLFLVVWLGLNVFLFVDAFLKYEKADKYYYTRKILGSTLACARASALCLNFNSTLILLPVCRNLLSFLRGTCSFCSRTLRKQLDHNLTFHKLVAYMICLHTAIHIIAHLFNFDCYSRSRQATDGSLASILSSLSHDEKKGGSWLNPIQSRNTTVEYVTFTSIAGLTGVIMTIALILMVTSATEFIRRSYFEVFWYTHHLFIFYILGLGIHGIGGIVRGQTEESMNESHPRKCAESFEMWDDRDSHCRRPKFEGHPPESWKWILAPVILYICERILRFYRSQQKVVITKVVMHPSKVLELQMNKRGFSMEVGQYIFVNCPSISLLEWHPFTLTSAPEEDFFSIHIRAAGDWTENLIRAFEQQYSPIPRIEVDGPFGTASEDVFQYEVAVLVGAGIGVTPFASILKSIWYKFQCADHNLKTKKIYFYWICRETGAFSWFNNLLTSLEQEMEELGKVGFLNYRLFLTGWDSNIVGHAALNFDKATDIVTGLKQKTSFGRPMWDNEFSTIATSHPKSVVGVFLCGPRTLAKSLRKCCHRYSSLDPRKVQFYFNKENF

COC(=O)[C@@]1(Cc2ccc(OC)cc2)[C@H]2c3cc(C(=O)N(C)C)n(C[C@H](O)CO)c3C[C@H]2CN1C(=O)c1ccccc1
AC50 (Cytochrome P450 2C19): 31.6 µM (inconclusive) | IC50 [1]: > 100 µM (active) | AC50 (Cytochrome P450 2C9): 31.6 µM (inconclusive)

C=CCn1c(SCC(=O)NCc2ccc3c(c2)OCO3)nc2scc(-c3ccc(F)cc3)c2c1=O
IC50 [2]: > 109 µM (inactive) | IC50 [3]: 68.6 µM (inactive)

CCN(CC)c1ccc(/C=C2/C(=O)c3ccc(C(=O)O)cc3C2=O)cc1
EC50 [4]: 0.07 µM (active) | IC50 [5]: 34.3 µM (active) | IC50 (Protein skinhead-1): 20.9 µM (active)

O=C(Oc1ccccc1N1CCCCC1)c1sc2ccccc2c1Cl
IC50 (NADPH oxidase 1): 2.31 µM (active)

Cc1ccc(NC(=O)c2cc(-c3ccco3)nc3ccccc23)cc1S(=O)(=O)N1CCOCC1
IC50 (Genome polyprotein): > 49.8 µM (not active) | IC50 [6]: 5.51 µM (active) | IC50 [7]: 8.01 µM (active) | IC50 [8]: 26.6 µM (active)

Cc1c(C(=O)N2CCOCC2)[nH]c2ccc(OCc3ccccc3)cc12
IC50 [9]: > 100 µM (not active)
